Laboratory results as given in US20240092784A1, “CONDENSED HETEROCYCLIC COMPOUND” (NISSAN CHEMICAL CORPORATION, priority 2020, published 2024).
Structures can show the parent of a compound that is named as a salt.

Molecular target: human SPR (Homo sapiens (Human), UniProt P35270)
Assay: Evaluation Example 2: Measurement of human SPR inhibitory activity (seven concentrations, sepiapterin absorbance at 420 nm)
Assay type: biochemical
Settings: Evaluation Example 2, seven concentrations 0.14 nM to 100 nM, 240 minutes at room temperature, read-out: IC50
Method in brief: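 Reactions ran 240 min at room temperature in 100 mM Tris-HCl pH 7.5 with 0.01% BSA. They contained tag-cleaved, E. coli-expressed full-length human SPR (diluted to 150 ng/mL), seven compound concentrations from 0.14 to 100 nM, and sepiapterin/NADPH added as a 120 μM/160 μM solution. Inhibition was calculated from sepiapterin absorbance at 420 nm.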

Sequence of human SPR (P35270 whole entry): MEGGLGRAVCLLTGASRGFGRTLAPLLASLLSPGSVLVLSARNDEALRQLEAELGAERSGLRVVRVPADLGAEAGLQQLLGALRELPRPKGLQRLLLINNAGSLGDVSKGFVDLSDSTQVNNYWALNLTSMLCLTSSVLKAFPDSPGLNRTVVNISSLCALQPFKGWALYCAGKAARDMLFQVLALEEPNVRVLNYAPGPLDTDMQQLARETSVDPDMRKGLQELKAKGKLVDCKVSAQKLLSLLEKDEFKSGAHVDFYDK

Structure (SMILES)	IC50
CC(C)(C)Cn1c(=O)c(C(=O)NC2CC2)c(O)n2nc3[nH]c(=O)ccc3c12 [Synthesis Example 394, N-Cyclopropyl-4-hydroxy-1-neopentyl-2,8-dioxo-1,2,7,8-tetrahydropyrido[2′,3′:3,4]pyrazolo[1,5-a]pyrimidine-3-carboxamide]	390 pM
CC(C)(C)Cn1c(=O)c(C(=O)NC2CC2)c(O)n2nc3[nH]ccc3c12 [Synthesis Example 395, N-Cyclopropyl-7-hydroxy-4-neopentyl-5-oxo-4,5-dihydro-1H-pyrrolo[2′,3′:3,4]pyrazolo[1,5-a]pyrimidine-6-carboxamide]	890 pM
CC(C)(C)Cn1c(=O)c(C(=O)NC2CC2)c(O)n2nc3c(c12)CCN3 [Synthesis Example 396, N-Cyclopropyl-7-hydroxy-4-neopentyl-5-oxo-2,3,4,5-tetrahydro-1H-pyrrolo[2′,3′:3,4]pyrazolo[1,5-a]pyrimidine-6-carboxamide]	1350 pM
CC(C)(C)Cn1c(=O)c(C(=O)NC2CC2)c(O)n2nc3c(c12)CCN3C(N)=O [Synthesis Example 397, N6-Cyclopropyl-7-hydroxy-4-neopentyl-5-oxo-2,3,4,5-tetrahydro-1H-pyrrolo[2′,3′:3,4]pyrazolo[1,5-a]pyrimidine-1,6-dicarboxamide]	1750 pM
CC(C)(C)Cn1c(=O)c(C(=O)NC2CC2)c(O)n2nc3c(c12)CCN3CC(F)(F)F [Synthesis Example 398, N-Cyclopropyl-7-hydroxy-4-neopentyl-5-oxo-1-(2,2,2-trifluoroethyl)-2,3,4,5-tetrahydro-1H-pyrrolo[2′,3′:3,4]pyrazolo[1,5-a]pyrimidine-6-carboxamide]	6080 pM
CC(C)Cn1c(=O)c(C(=O)NC2CC2)c(O)n2nc3[nH]ccc3c12 [Synthesis Example 399, N-Cyclopropyl-7-hydroxy-4-isobutyl-5-oxo-4,5-dihydro-1H-pyrrolo[2′,3′:3,4]pyrazolo[1,5-a]pyrimidine-6-carboxamide]	1560 pM
CC(C)(C)Cn1c(=O)c(C(=O)NC2CC2)c(O)n2nc3c(c12)COC(=O)N3 [Synthesis Example 400, N-Cyclopropyl-8-hydroxy-5-neopentyl-2,6-dioxo-1,2,5,6-tetrahydro-4H-pyrimido[1′,2′:1,5]pyrazolo[3,4-d][1,3]oxazine-7-carboxamide]	700 pM
CC(C)(C)Cn1c(=O)c(C(=O)NC2CC2)c(O)n2nc3c(c12)CCOC(=O)N3 [Synthesis Example 401, N-Cyclopropyl-9-hydroxy-6-neopentyl-2,7-dioxo-1,2,4,5,6,7-hexahydropyrimido[1′,2′:1,5]pyrazolo[3,4-d][1,3]oxazepine-8-carboxamide]	560 pM
CC(C)(C)Cn1c(=O)c(C(=O)NC2CC2)c(O)n2nc3c(c12)CC(=O)N3 [Synthesis Example 402, N-Cyclopropyl-7-hydroxy-4-neopentyl-2,5-dioxo-2,3,4,5-tetrahydro-1H-pyrrolo[2′,3′:3,4]pyrazolo[1,5-a]pyrimidine-6-carboxamide]	630 pM
CC(C)(C)Cn1c(=O)c(C(=O)NC2CC2)c(O)n2nc3c(c12)CCC(=O)N3 [Synthesis Example 403, N-Cyclopropyl-4-hydroxy-1-neopentyl-2,8-dioxo-1,2,7,8,9,10-hexahydropyrido[2′,3′:3,4]pyrazolo[1,5-a]pyrimidine-3-carboxamide]	610 pM
CC(C)Cn1c(=O)c(C(=O)NC2CC2)c(O)n2nc3c(c12)CCC(=O)N3 [Synthesis Example 404, N-Cyclopropyl-4-hydroxy-1-isobutyl-2,8-dioxo-1,2,7,8,9,10-hexahydropyrido[2′,3′:3,4]pyrazolo[1,5-a]pyrimidine-3-carboxamide]	630 pM
CC(C)(C)Cn1c(=O)c(C(=O)NC2CC2)c(O)n2nc3c(c12)CN(C1CCOCC1)C(=O)N3 [Synthesis Example 405, N-Cyclopropyl-8-hydroxy-5-neopentyl-2,6-dioxo-3-(tetrahydro-2H-pyran-4-yl)-1,2,3,4,5,6-hexahydropyrazolo[1,5-a:3,4-d′]dipyrimidine-7-carboxamide]	770 pM
CN1Cc2c(nn3c(O)c(C(=O)NC4CC4)c(=O)n(CC(C)(C)C)c23)NC1=O [Synthesis Example 406, N-Cyclopropyl-8-hydroxy-3-methyl-5-neopentyl-2,6-dioxo-1,2,3,4,5,6-hexahydropyrazolo[1,5-a:3,4-d′]dipyrimidine-7-carboxamide]	930 pM
CC(C)(C)Cn1c(=O)c(C(=O)NC2CC2)c(O)n2nc3c(c12)CN(C1CCC(F)(F)CC1)C(=O)N3 [Synthesis Example 407, N-Cyclopropyl-3-(4,4-difluorocyclohexyl)-8-hydroxy-5-neopentyl-2,6-dioxo-1,2,3,4,5,6-hexahydropyrazolo[1,5-a:3,4-d′]dipyrimidine-7-carboxamide]	1230 pM
CC(C)(C)Cn1c(=O)c(C(=O)NC2CC2)c(O)n2nc3c(c12)CN(C1CC1)C(=O)N3 [Synthesis Example 408, N,3-Dicyclopropyl-8-hydroxy-5-neopentyl-2,6-dioxo-1,2,3,4,5,6-hexahydropyrazolo[1,5-a:3,4-d′]dipyrimidine-7-carboxamide]	830 pM
CC(C)(C)Cn1c(=O)c(C(=O)NC2CC2)c(O)n2nc3c(c12)CN(CC1CCOCC1)C(=O)N3 [Synthesis Example 409, N-Cyclopropyl-8-hydroxy-5-neopentyl-2,6-dioxo-3-((tetrahydro-2H-pyran-4-yl)methyl)-1,2,3,4,5,6-hexahydropyrazolo[1,5-a:3,4-d′]dipyrimidine-7-carboxamide]	750 pM
CC(C)(C)Cn1c(=O)c(C(=O)NC2CC2)c(O)n2nc3c(c12)CN(C1CC(F)(F)C1)C(=O)N3 [Synthesis Example 410, N-Cyclopropyl-3-(3,3-difluorocyclobutyl)-8-hydroxy-5-neopentyl-2,6-dioxo-1,2,3,4,5,6-hexahydropyrazolo[1,5-a:3,4-d′]dipyrimidine-7-carboxamide]	1500 pM
CC(C)(C)Cn1c(=O)c(C(=O)NC2CC2)c(O)n2nc(N)c(/C=C/C(=O)N3CCOCC3)c12 [Synthesis Example 411, (E)-2-Amino-N-cyclopropyl-7-hydroxy-3-(3-morpholino-3-oxoprop-1-en-1-yl)-4-neopentyl-5-oxo-4,5-dihydropyrazolo[1,5-a]pyrimidine-6-carboxamide]	650 pM
CCOC(=O)/C=C/c1c(NC(=O)OC(C)(C)C)nn2c(O)c(C(=O)NC3CC3)c(=O)n(CC(C)C)c12 [Synthesis Example 412, Ethyl (E)-3-(2-((tert-butoxycarbonyl)amino)-6-(cyclopropylcarbamoyl)-7-hydroxy-4-isobutyl-5-oxo-4,5-dihydropyrazolo[1,5-a]pyrimidin-3-yl)acrylate]	1850 pM
CC(C)Cn1c(=O)c(C(=O)NC2CC2)c(O)n2nc(NC(=O)OC(C)(C)C)c(/C=C/C(=O)N3CCC(F)(F)CC3)c12 [Synthesis Example 413, Tert-butyl (E)-(6-(cyclopropylcarbamoyl)-3-(3-(4,4-difluoropiperidin-1-yl)-3-oxoprop-1-en-1-yl)-7-hydroxy-4-isobutyl-5-oxo-4,5-dihydropyrazolo[1,5-a]pyrimidin-2-yl)carbamate]	1320 pM
CC(C)Cn1c(=O)c(C(=O)NC2CC2)c(O)n2nc(N)c(/C=C/C(=O)N3CCC(F)(F)CC3)c12 [Synthesis Example 414, (E)-2-Amino-N-cyclopropyl-3-(3-(4,4-difluoropiperidin-1-yl)-3-oxoprop-1-en-1-yl)-7-hydroxy-4-isobutyl-5-oxo-4,5-dihydropyrazolo[1,5-a]pyrimidine-6-carboxamide hydrochloride]	700 pM
CC(C)Cn1c(=O)c(C(=O)NC2CC2)c(O)n2nc(NC(=O)OC(C)(C)C)c(/C=C/C(=O)N3CCOCC3)c12 [Synthesis Example 415, Tert-butyl (E)-(6-(cyclopropylcarbamoyl)-7-hydroxy-4-isobutyl-3-(3-morpholino-3-oxoprop-1-en-1-yl)-5-oxo-4,5-dihydropyrazolo[1,5-a]pyrimidin-2-yl)carbamate]	740 pM
CC(C)Cn1c(=O)c(C(=O)NC2CC2)c(O)n2nc(N)c(/C=C/C(=O)N3CCOCC3)c12 [Synthesis Example 416, (E)-2-Amino-N-cyclopropyl-7-hydroxy-4-isobutyl-3-(3-morpholino-3-oxoprop-1-en-1-yl)-5-oxo-4,5-dihydropyrazolo[1,5-a]pyrimidine-6-carboxamide]	590 pM
CC(C)Cn1c(=O)c(C(=O)NC2CC2)c(O)n2nc(N)c(/C=C/C(=O)N3CCOC[C@@H]3C)c12 [Synthesis Example 417, (S,E)-2-Amino-N-cyclopropyl-7-hydroxy-4-isobutyl-3-(3-(3-methylmorpholino)-3-oxoprop-1-en-1-yl)-5-oxo-4,5-dihydropyrazolo[1,5-a]pyrimidine-6-carboxamide hydrochloride]	590 pM
CC(C)Cn1c(=O)c(C(=O)NC2CC2)c(O)n2nc(N)c(/C=C/C(=O)N3CCOC[C@H]3C)c12 [Synthesis Example 418, (R,E)-2-Amino-N-cyclopropyl-7-hydroxy-4-isobutyl-3-(3-(3-methylmorpholino)-3-oxoprop-1-en-1-yl)-5-oxo-4,5-dihydropyrazolo[1,5-a]pyrimidine-6-carboxamide hydrochloride]	610 pM
Nc1nn2c(O)c(C(=O)NC3CC3)c(=O)n(CC3CC3)c2c1/C=C/C(=O)N1CCOCC1 [Synthesis Example 419, (E)-2-Amino-N-cyclopropyl-4-(cyclopropylmethyl)-7-hydroxy-3-(3-morpholino-3-oxoprop-1-en-1-yl)-5-oxo-4,5-dihydropyrazolo[1,5-a]pyrimidine-6-carboxamide hydrochloride]	830 pM
Nc1nn2c(O)c(C(=O)NC3CC3)c(=O)n(CC3CC3)c2c1/C=C/C(=O)N1CCC(F)(F)CC1 [Synthesis Example 420, (E)-2-Amino-N-cyclopropyl-4-(cyclopropylmethyl)-3-(3-(4,4-difluoropiperidin-1-yl)-3-oxoprop-1-en-1-yl)-7-hydroxy-5-oxo-4,5-dihydropyrazolo[1,5-a]pyrimidine-6-carboxamide hydrochloride]	750 pM
